The results in this text go back to ChEMBL document CHEMBL1201862, “PubChem BioAssay data set” (2004).

Among the test systems are M19-MEL; LXFL 529; RXF 631; XF498; 786-0; T47D; MDA-MB-435; DU-145; BT-549.
Common to all, as to assay: NCI anticancer screen, dose series, 48 h

Structures are written as SMILES.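 Following 48 hours of exposure in 96-well plates, responses at five concentrations were used to interpolate endpoints linearly. The concentration for 50% growth inhibition is given as GI50.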 Calls of active or inactive are those of the source. No stated cut-off is given here; in the data, active = GI50 up to about 1.1 µM and inactive = higher.

For `CC(C)CCC1CC2C(=O)N(c3ccccc3)C(=O)C2c2[nH]c3ccccc3c21` (stereo not drawn), the GI50 in the experiment with M19-MEL was 5.2 µM (inactive); in the experiment with LXFL 529 it was 6.05 µM (inactive); with RXF 631, 1.26 µM (inactive); in the experiment with XF498 it was 0.206 µM (active); in the experiment on 786-0, 2.88 µM (inactive).
Take `COc1ccc([I+]c2ccc(OC)cc2)cc1`: the GI50 in the experiment on T47D was > 95.7 µM (inactive); in the experiment with MDA-MB-435, > 56.5 µM (inactive); in the experiment with 786-0, 50.7 µM (inactive); with DU-145 it was 99.5 µM (inactive).
Take `C/C(=C\c1ccc(Cl)cc1)C(C)(C)C(=O)O`: the GI50 in the experiment with BT-549, in the experiment on T47D, in the experiment with MDA-MB-435, with 786-0 and in the experiment with DU-145 was > 100 µM (inactive) in each case.
Turning to `N#CSCC1COc2ccccc2O1` (stereo not drawn), the GI50 in the experiment with T47D, in the experiment on MDA-MB-435 and with DU-145 was > 10 µM (inactive) throughout.
On to `CC(=O)Nc1ccc(/C=C/C(=O)N2CC(CCl)c3c2cc(N)c2ccccc32)cc1` (stereo not drawn), for which the GI50 in the experiment with BT-549 is 0.00624 µM (active); with T47D it was 0.01 µM (active); in the experiment on MDA-MB-435, 0.00767 µM (active); in the experiment on 786-0, < 0.005 µM (active); in the experiment with DU-145, < 0.005 µM (active).
As for `CCC1CN2CCC1CC2` (stereo not drawn), the GI50 in the experiment on M19-MEL and with XF498 was > 100 µM (inactive) each time.
Turning to `CC(=O)N(CCN1C(=O)c2ccccc2C1=O)CCN1C(=O)c2ccccc2C1=O`, the GI50 in the experiment on M19-MEL, with LXFL 529, with XF498 and in the experiment on 786-0 was > 100 µM (inactive) each time.
Consider `O=C(O)CCCCCCCCC(=O)O` [SEBACIC ACID], for which the GI50 with M19-MEL was > 79.3 µM (inactive); with XF498 it was 3.62 µM (inactive).
`COc1ccc(-c2cc(C(O)C3CCCCN3)c3ccccc3n2)cc1` (stereo not drawn): the GI50 was 15.9 µM (inactive) in the experiment with BT-549; 4 µM (inactive) with T47D; 3.73 µM (inactive) with MDA-MB-435; 8.34 µM (inactive) in the experiment on 786-0; 8.39 µM (inactive) with DU-145.
As for `CC(NNC(=O)c1cc[n+]([BH2-]C#N)cc1)c1ccc(F)cc1` (stereo not drawn), the GI50 with BT-549, with T47D, in the experiment with MDA-MB-435, in the experiment with 786-0 and with DU-145 was > 100 µM (inactive) each time.
Turning to `CCOP(=O)(OCC)/C(C#N)=C/c1cccn1Cc1ccccc1`, the GI50 in the experiment on BT-549 was 32.3 µM (inactive); with T47D, 16.9 µM (inactive); with MDA-MB-435, 19.4 µM (inactive); in the experiment on 786-0, 26.1 µM (inactive); in the experiment on DU-145, 43.2 µM (inactive).
For the compound `N#Cc1c(N2CCOCC2)ncn(-c2ccccc2)c1=O`, the GI50 in the experiment with BT-549, in the experiment on T47D, in the experiment on MDA-MB-435, with 786-0 and with DU-145 was > 100 µM (inactive) in each case.
With `O=C1CSC(c2ccccc2)N1c1ccc(-c2ccc(-n3c(-c4ccccc4)nc4ccccc4c3=O)cc2)cc1` (stereo not drawn), the GI50 in the experiment with BT-549 is 43.3 µM (inactive); with T47D it was 25 µM (inactive); with MDA-MB-435 it was 49.8 µM (inactive); in the experiment with 786-0, 55 µM (inactive); in the experiment with DU-145 it was 85.1 µM (inactive).
`O=C(O)/C=C/c1c[nH]cn1`: the GI50 with M19-MEL and with XF498 was > 500 µM (inactive) in each case.
As to `C[C@H]1[C@@H]2C[C@@H]3O[C@@]34[C@H]3CCC5Cc6nc7c(nc6C[C@@]5(C)[C@]3(O)CC(=O)[C@@]24CO[C@]12OC(C)(C)C[C@@H]2O)CC1CC[C@@H]2C3=C[C@H]4O[C@@]5(OC(C)(CO)C[C@@H]5O)[C@H](C)[C@@]4(O)[C@]3(C)[C@@H](O)CC2[C@]1(C)C7` (stereo partly drawn), the figures for the GI50 in the experiment on M19-MEL and in the experiment with XF498 were 2.77 µM (inactive) and 0.00769 µM (active), respectively.
For `COc1ccc(-c2cc(=O)c3ccccc3o2)cc1N`, the GI50 is 86.1 µM (inactive) with M19-MEL; 35.7 µM (inactive) in the experiment with LXFL 529; 42.3 µM (inactive) in the experiment with RXF 631; 18.2 µM (inactive) in the experiment with XF498; > 100 µM (inactive) in the experiment on 786-0.
For the compound `COC(=O)[C@@H]1c2cc3c(c(O)c2[C@@H](OC)C[C@@]1(C)O)C(=O)c1c(O)cc2c(c1C3=O)OC1O[C@@]2(C)[C@H](O)[C@@H](N(C)C)[C@@H]1O`, the GI50 is 0.266 µM (active) in the experiment with M19-MEL and 0.179 µM (active) with XF498.
On to `Cc1nnc2sc(N/N=C/c3ccccc3)nn12`, for which the GI50 with BT-549, in the experiment with T47D, in the experiment with MDA-MB-435, with 786-0 and with DU-145 was > 100 µM (inactive) in each case.
As to `Clc1ncc(C(Cl)(Cl)Cl)nc1-c1ccccc1`, the GI50 in the experiment with BT-549 was 1.65 µM (inactive); in the experiment on T47D, 1.96 µM (inactive); in the experiment on MDA-MB-435 it was 1.77 µM (inactive); in the experiment with 786-0 it was 1.95 µM (inactive); with DU-145, 1.61 µM (inactive).
For `CC1(C)CNC(=O)C2(/C=N/C(C)(C)CNC(=O)C3(/C=N/1)CCCO3)CCCO2` (stereo not drawn), the GI50 with BT-549, in the experiment on T47D, with MDA-MB-435, with 786-0 and in the experiment with DU-145 was > 10 µM (inactive) in each case.
Turning to `COc1ccc(-c2nnc3c4ccccc4sn23)cc1`, the GI50 in the experiment with M19-MEL is 22.5 µM (inactive); with LXFL 529 it was 23.7 µM (inactive).
As to `CCCCCCCCC[C@@H]1C[C@H](O)[C@H](Cc2ccccc2)N1C(=O)OC(C)(C)C`, the GI50 was 16.8 µM (inactive) in the experiment with M19-MEL, 17.2 µM (inactive) in the experiment on LXFL 529 and 22.2 µM (inactive) in the experiment on XF498.
With `CC(C)(C)[Si](C)(C)OCC1CCC(n2cnc3c(N)ncnc32)O1` (stereo not drawn), the GI50 in the experiment with BT-549 was 27 µM (inactive); in the experiment on T47D it was 27.2 µM (inactive); in the experiment on MDA-MB-435, 25.9 µM (inactive); with DU-145, 73.8 µM (inactive).
Regarding `O=C(O)c1ccc([N+](=O)[O-])c2c(=O)c3ccccc3[nH]c12`, the GI50 with M19-MEL, in the experiment with LXFL 529, in the experiment with RXF 631 and in the experiment with 786-0 was > 100 µM (inactive) each time.
As for `Sc1nn2c(COc3cc(Cl)c(OCc4nnc5sc(S)nn45)cc3Cl)nnc2s1`, the GI50 in the experiment with BT-549 was 32.7 µM (inactive); with T47D, 26 µM (inactive); in the experiment with MDA-MB-435, 43.9 µM (inactive); with 786-0, 39.5 µM (inactive); with DU-145, 78.3 µM (inactive).
For `CCOC(=O)c1cc(C)nc2c1c(=O)n(-c1ccccc1)c(=O)n2CCCCN1CCN(c2ncccn2)CC1` the same measures were 45.1 µM (inactive), 43.5 µM (inactive), > 100 µM (inactive), > 100 µM (inactive) and > 100 µM (inactive).
For `CCCCCCCC/C=C\CCCCCCCCNc1ccn(C2OC(COP(=O)(O)OC3CC(n4cc(F)c(=O)[nH]c4=O)OC3CO)C(O)C2O)c(=O)n1` (stereo not drawn) the same measures were 20.9 µM (inactive), 36.3 µM (inactive), 40.8 µM (inactive), 0.195 µM (active) and 0.159 µM (active).
Regarding `O=C(Nc1ccc(C2=NCCN2)cc1)c1cncc(C(=O)Nc2ccc(C3=NCCN3)cc2)c1`, the GI50 in the experiment on M19-MEL and with XF498 was > 100 µM (inactive) each time.
Turning to `CC1(C)N=C(N)N=C(N)N1c1ccc(Cl)cc1`, the GI50 is 26.2 µM (inactive) in the experiment with BT-549; 35.1 µM (inactive) with T47D; 1.79 µM (inactive) with MDA-MB-435; 0.598 µM (active) in the experiment with 786-0; 7.11 µM (inactive) in the experiment on DU-145.
`Cn1c2ccccc2c(=O)c2c(O)cc3c(c21)C=CC(C)(C)O3` [NORACRONYCINE]: the GI50 in the experiment on M19-MEL and in the experiment on XF498 was > 25 µM (inactive) throughout.
For the compound `CN(CCO)CCC1COc2ccccc2O1` (stereo not drawn), the GI50 in the experiment on T47D, in the experiment with MDA-MB-435 and in the experiment on DU-145 was > 10 µM (inactive) in each case.
Consider `COc1cc(C(C)c2cc3c(cc2OCCO)OCO3)cc(OC)c1OC` (stereo not drawn), for which the GI50 is 1.66 µM (inactive) in the experiment with M19-MEL, 2.77 µM (inactive) with LXFL 529 and < 0.01 µM (active) in the experiment with XF498.
In the case of `Cc1ccc(S(=O)(=O)NC(=O)NC(Cc2ccccc2)C(=O)O)cc1` (stereo not drawn), the GI50 in the experiment on BT-549, with T47D, in the experiment with 786-0 and with DU-145 was > 100 µM (inactive) in each case.
Turning to `C[C@@H](CC(O)C(O)C(C)(C)O)C1CCC23CC12CCC1[C@@]2(C)CCC(O)C(C)(C)C2CC(OC2OC(CO)C(O)C(O)C2O)[C@]13C` (stereo partly drawn), the GI50 with BT-549, in the experiment with T47D, with MDA-MB-435, with 786-0 and in the experiment on DU-145 was > 10 µM (inactive) in each case.
